Test results taken from patent US20220323383A1, “SMALL-MOLECULAR ADJUVANTS AND IMPLEMENTATIONS THEREOF” (JAWAHARLAL NEHRU CENTRE FOR ADVANCED SCIENTIFIC RESEARCH, priority 2019, published 2022).

Tests used:
Assay type in all cases: cell-based
E. coli R3336 [1] = assay: Chequerboard combination efficacy of adjuvant with antibiotics
Protocol: (§1) All the solvents were of reagent grade, which were distilled and dried before its use. All the reagents were purchased from Sigma-Aldrich, Alfa-Aesar, S.D. Fine, Avra and Spectrochem, and were used without further purification. Analytical thin layer chromatography (TLC) was performed on E. Merck TLC plates pre-coated with silica gel 60 F254 and visualization was carried out using UV light and Iodine. Column chromatography was performed on silica gel (60-120 mesh) using different ratio of chloroform and methanol solvent system. Nuclear magnetic resonance spectra were recorded on Bruker (AV-400) 400 MHz spectrometer in deuterated solvents. Mass spectra were obtained using 6538-UHD Accurate mass Q-TOF LC-MS instrument. For optical density measurement during bacteriology experiments, Tecan Infinite Pro series M200 Microplate Reader was used. Bacterial strains, A. baumannii (R674), P. aeruginosa (R590), E. coli (R3336) and K. pneumoniae (R3934) were used for the studies.
(§2) The combination efficacy with antibiotics from different classes and individual antibacterial activity of the synthesized adjuvants was evaluated against the above mentioned MDR and NDM-1 strains of Gram-negative bacteria. All the bacteria were grown in peptone. The bacterial samples were freeze dried and stored at −80° C. 3 μl of these stocks were added to 3 mL of peptone and the culture was grown for 6 h at 37° C. prior to the experiments.
(§3) All synthesized compounds were assayed for their antibacterial activity in combination with antibiotics in a modified chequerboard micro-dilution broth format. Stock solutions were made by serially diluting the compounds using autoclaved millipore water. The bacterial freeze dried stock samples were stored at −80° C. About 3 μL of these stocks were added to about 3 mL of the respective broth and the culture was grown for about 6 h at about 37° C. with prior to the experiments. This 6 h grown culture gives about 10^8 cfu/mL in case of A. baumannii R674, P. aeruginosa R590, E. coli R3336 and K. pneumoniae R3934 which were determined by spread plating method. This 6 h grown culture was diluted to give effective cell concentration of 10^5 cfu/mL, and then used for the chequerboard assay. Adjuvants and antibiotics were serially diluted in two-fold, in sterile millipore water. 25 μL of these serial dilutions of the antibiotics and 25 μL of compounds were added to the wells of 96 well plate followed by the addition of about 150 μL of bacterial solution (˜10^5 cfu/mL). The plates were then incubated at about 37° C., 150 rpm in the incubator and O.D at 600 nm was recorded at 24 h using TECAN (Infinite series, M200 pro) Plate Reader. The wells with similar OD as the media control contained the required concentration of the antibiotic and adjuvant for antibacterial efficacy. The potentiation ability of the adjuvants was determined by calculating the potentiation factor and the Fractional Inhibitory concentration (FIC) index. Fractional Inhibitory Concentration (FIC) is expressed as, FIC=[X]/MICX, where [X] is the lowest inhibitory concentration of antibiotic in the presence of the adjuvant. Whereas FIC index is expressed as, FICI=FICantibiotic+FICadjuvant. The values of FIC index give an insight about the nature of the combination. Potentiation factor which means fold-reduction in the MIC of the antibiotic, when used in combination with the adjuvant was also determined. Potentiation factor=[Minimum inhibitory concentration (MIC) of antibiotic in absence of adjuvant]/[MIC of antibiotic in presence of adjuvant]. […] The combination efficacies of adjuvants with various antibiotics are furnished in Table 1. It should be noted that various other resistant strains of bacteria (Gram-positive and Gram-negative) can be tested with a number of other antibiotics to check the potentiation capacity of the adjuvants.

P. aeruginosa R590 [2] = assay: as above; settings: P. aeruginosa R590
Protocol: as §1, §2, §3

K. pneumoniae R3934 [3] = assay: as above
Protocol: as §1, §2, §3

A. baumannii R674 [4] = assay: as above
Protocol: as §1, §2, §3

E. coli R3336 [5] = assay: Individual antibacterial activity (MIC) of adjuvants; settings: Escherichia coli, R3336, read-out: MIC against clinical isolates of bacteria
Protocol: as §2, §3

P. aeruginosa R590 [6] = assay: as above; settings: Pseudomonas aeruginosa; adjuvant alone; P. aeruginosa R590; read-out: MIC against clinical isolates of bacteria
Protocol: as §2, §3

K. pneumoniae R3934 [7] = assay: as above; settings: Klebsiella pneumoniae; adjuvant alone; K. pneumoniae R3934; read-out: MIC against clinical isolates of bacteria
Protocol: as §2, §3

A. baumannii R674 [8] = assay: as above; settings: Acinetobacter baumannii; adjuvant alone; A. baumannii R674; read-out: MIC against clinical isolates of bacteria
Protocol: as §2, §3

human RBCs = assay: Haemolytic activity; settings: concentration at which 50% of human blood cells are lysed; 1 h at 37° C.
Protocol: Erythrocytes were isolated from freshly drawn, heparanized human blood and re-suspended to 5 vol % in PBS (pH 7.4). In a 96-well microtiter plate, 150 μl of erythrocyte suspension was added to 50 μl of serially diluted compound. Two controls were made, one without compound and other with 50 μl of 1 vol % solution of Triton X-100. The plate was incubated for 1 h at 37° C. The plate was then centrifuged at 3,500 rpm for 5 min, 100 μl of the supernatant from each well was transferred to a fresh 96-well microtiter plate, and A540 was measured. Percentage of hemolysis was determined as (A−A0)/(Atotal−A0)×100, where A is the absorbance of the test well, A0 the absorbance of the negative controls (without compound), and Atotal the absorbance of 100% hemolysis wells (with Triton X-100), all at 540 nm.
Toxicity studies of the compounds were done on freshly drawn human RBCs. Toxicity of the compounds were defined by their HC50 values (Table 2), i.e. the concentration of compound at which 50% of the blood cells are lysed.

NCCCC[C@H](N)C(=O)NCCCCCCN(CCCCCCNC(=O)[C@@H](N)CCCCN)CC(=O)NC1C2CC3CC(C2)CC1C3 (stereo partly shown) [Compound 15, N-(adamantan-2-yl)-2-[N′,N′-{bis-(6-^LLys) amido)hexyl} amino] ethanamide pentakistrifluoroacetate] was tested, and the FICI (E. coli R3336 [1]; antibiotic Fusidic acid) was less than 0.1875, the Potentiation factor (E. coli R3336 [1]; antibiotic Fusidic acid) was greater than 16 and the “MIC of antibiotic in presence of adjuvant” value (shortened to “MIC of antibiotic”) (E. coli R3336 [1]; antibiotic Linezolid) was “No potentiation”. The FICI (E. coli R3336 [1]; antibiotic Minocycline) was less than 0.0469, the “MIC of antibiotic” value (E. coli R3336 [1]; antibiotic Minocycline) was 0.5 µg/mL and the Potentiation factor (E. coli R3336 [1]; antibiotic Minocycline) was 64. For the same compound, the FICI (E. coli R3336 [1]; antibiotic Rifampicin) was less than 0.0469, the “MIC of antibiotic” value (E. coli R3336 [1]; antibiotic Rifampicin) was 16 µg/mL and the Potentiation factor (E. coli R3336 [1]; antibiotic Rifampicin) was 32. The Potentiation factor (P. aeruginosa R590 [2]; antibiotic Chloramphenicol) was 4, the FICI (P. aeruginosa R590 [2]; antibiotic Colistin) was 0.3125 and the “MIC of antibiotic” value (P. aeruginosa R590 [2]; antibiotic Colistin) was 0.25 µg/mL. For the same compound, the Potentiation factor (P. aeruginosa R590 [2]; antibiotic Colistin) was 4, the “MIC of antibiotic” value (P. aeruginosa R590 [2]; antibiotic Daptomycin) was “No potentiation” and the FICI (P. aeruginosa R590 [2]; antibiotic Fusidic acid) was less than 0.1289. The “MIC of antibiotic” value (P. aeruginosa R590 [2]; antibiotic Fusidic acid) was less than 0.25 µg/mL, the Potentiation factor (P. aeruginosa R590 [2]; antibiotic Fusidic acid) was greater than 256 and the FICI (P. aeruginosa R590 [2]; antibiotic Linezolid) was 0.2812. The Potentiation factor (P. aeruginosa R590 [2]; antibiotic Linezolid) was 4, the FICI (P. aeruginosa R590 [2]; antibiotic Minocycline) was 0.5 and the “MIC of antibiotic” value (P. aeruginosa R590 [2]; antibiotic Minocycline) was 2 µg/mL. For the same compound, the Potentiation factor (P. aeruginosa R590 [2]; antibiotic Minocycline) was 4, the FICI (P. aeruginosa R590 [2]; antibiotic Rifampicin) was less than 0.126 and the “MIC of antibiotic” value (P. aeruginosa R590 [2]; antibiotic Rifampicin) was less than 0.125 µg/mL. The Potentiation factor (P. aeruginosa R590 [2]; antibiotic Rifampicin) was greater than 1024, the FICI (P. aeruginosa R590 [2]; antibiotic Tetracycline) was 0.5078 and the “MIC of antibiotic” value (P. aeruginosa R590 [2]; antibiotic Tetracycline) was 2 µg/mL. For the same compound, the Potentiation factor (P. aeruginosa R590 [2]; antibiotic Tetracycline) was 128, the FICI (K. pneumoniae R3934 [3]; antibiotic Fusidic acid) was less than 0.0781 and the “MIC of antibiotic” value (K. pneumoniae R3934 [3]; antibiotic Fusidic acid) was 8 µg/mL. For the same compound, the Potentiation factor (K. pneumoniae R3934 [3]; antibiotic Fusidic acid) was 64, the “MIC of antibiotic” value (K. pneumoniae R3934 [3]; antibiotic Linezolid) was “No potentiation” and the FICI (K. pneumoniae R3934 [3]; antibiotic Minocycline) was less than 0.07. For the same compound, the “MIC of antibiotic” value (K. pneumoniae R3934 [3]; antibiotic Minocycline) was 0.5 µg/mL, the Potentiation factor (K. pneumoniae R3934 [3]; antibiotic Minocycline) was 128 and the FICI (K. pneumoniae R3934 [3]; antibiotic Rifampicin) was less than 0.1289. For the same compound, the “MIC of antibiotic” value (K. pneumoniae R3934 [3]; antibiotic Rifampicin) was 2 µg/mL, the Potentiation factor (K. pneumoniae R3934 [3]; antibiotic Rifampicin) was 256 and the “MIC of antibiotic” value (A. baumannii R674 [4]; antibiotic Ampicillin) was “No potentiation”. For the same compound, the FICI (A. baumannii R674 [4]; antibiotic Ciprofloxacin) was 1.25, the “MIC of antibiotic” value (A. baumannii R674 [4]; antibiotic Ciprofloxacin) was 64 µg/mL and the Potentiation factor (A. baumannii R674 [4]; antibiotic Ciprofloxacin) was 4. The FICI (A. baumannii R674 [4]; antibiotic Erythromycin) was 0.1875, the “MIC of antibiotic” value (A. baumannii R674 [4]; antibiotic Erythromycin) was 32 µg/mL and the Potentiation factor (A. baumannii R674 [4]; antibiotic Erythromycin) was 16. The FICI (A. baumannii R674 [4]; antibiotic Fusidic acid) was less than 0.07, the “MIC of antibiotic” value (A. baumannii R674 [4]; antibiotic Fusidic acid) was less than 0.5 µg/mL and the Potentiation factor (A. baumannii R674 [4]; antibiotic Fusidic acid) was greater than 128. The FICI (A. baumannii R674 [4]; antibiotic Linezolid) was 1.125, the Potentiation factor (A. baumannii R674 [4]; antibiotic Linezolid) was 8 and the FICI (A. baumannii R674 [4]; antibiotic Minocycline) was 0.5625. For the same compound, the “MIC of antibiotic” value (A. baumannii R674 [4]; antibiotic Minocycline) was 0.5 µg/mL, the Potentiation factor (A. baumannii R674 [4]; antibiotic Minocycline) was 16 and the FICI (A. baumannii R674 [4]; antibiotic Rifampicin) was 0.1289. For the same compound, the “MIC of antibiotic” value (A. baumannii R674 [4]; antibiotic Rifampicin) was 0.25 µg/mL, the Potentiation factor (A. baumannii R674 [4]; antibiotic Rifampicin) was 256 and the “MIC of antibiotic” value (A. baumannii R674 [4]; antibiotic Streptomycin) was “No potentiation”. For the same compound, the FICI (A. baumannii R674 [4]; antibiotic Tetracycline) was 0.5156, the “MIC of antibiotic” value (A. baumannii R674 [4]; antibiotic Tetracycline) was 2 µg/mL and the Potentiation factor (A. baumannii R674 [4]; antibiotic Tetracycline) was 64. The FICI (A. baumannii R674 [4]; antibiotic Vancomycin) was 0.5625, the Potentiation factor (A. baumannii R674 [4]; antibiotic Vancomycin) was 2 and the MIC (E. coli R3336 [5]) was greater than 512 µg/mL. For the same compound, the MIC (P. aeruginosa R590 [6]) was 64 µg/mL, the MIC (K. pneumoniae R3934 [7]) was greater than 512 µg/mL and the MIC (A. baumannii R674 [8]) was 128 µg/mL. For the same compound, the HC50 (human RBCs) was greater than 1024 µg/mL.
